Experiments:
Assay in all cases: Bliss excess, mean over the matrix (fraction); higher = more synergy
EW-16 (Ewing's Sarcoma) = tested on: EW-16 (Ewing's Sarcoma)
In short: (§1)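 After 24 hours at 37°C and 5% CO2 in 1536-well plates, cells in DMEM/F12 or RPMI plus 10% FBS received two-drug dose matrices for 72 hours. Viability came from CellTiter-Glo 2.0 luminescence and was scaled as inhibition, anchored at 0 by vehicle wells and at 1 by blank wells. Combination Emax is taken as the second-highest inhibition in the matrix, and Bliss excess as the observed combination effect less EA + EB − EA·EB, with EA and EB the single-agent effects.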

[1] = tested on: HCC1395 (Breast Carcinoma)
In short: as §1

[2] = tested on: GA-10 (Burkitt's Lymphoma)
In short: as §1

[3] = tested on: ESO26 (Esophageal Adenocarcinoma)
In short: as §1

[4] = tested on: G-402 (Other Solid Carcinomas)
In short: as §1

[5] = tested on: JVM-2 (B-Cell Non-Hodgkin's Lymphoma)
In short: as §1

5637 (Bladder Carcinoma) = tested on: 5637 (Bladder Carcinoma)
In short: as §1

[6] = tested on: KYSE-140 (Esophageal Squamous Cell Carcinoma)
In short: as §1

[7] = tested on: OACp4C (Esophageal Adenocarcinoma)
In short: as §1

[8] = tested on: LS-411N (Colorectal Carcinoma)
In short: as §1

[9] = tested on: JIMT-1 (Breast Carcinoma)
In short: as §1

AU565 (Breast Carcinoma) = tested on: AU565 (Breast Carcinoma)
In short: as §1

[10] = tested on: CESS (Acute Myeloid Leukemia)
In short: as §1

[11] = tested on: A253 (Head and Neck Carcinoma)
In short: as §1

IM-9 (Non-Cancerous) = tested on: IM-9 (Non-Cancerous)
In short: as §1

[12] = tested on: MHH-ES-1 (Ewing's Sarcoma)
In short: as §1

[13] = tested on: CA46 (Burkitt's Lymphoma)
In short: as §1

[14] = tested on: 22RV1 (Prostate Carcinoma)
In short: as §1

[15] = tested on: GCT (Other Solid Carcinomas)
In short: as §1

A101D (Melanoma) = tested on: A101D (Melanoma)
In short: as §1

SMILES | Bliss excess (EW-16 (Ewing's Sarcoma)) | Bliss excess [1] | Bliss excess [2] | Bliss excess [3] | Bliss excess [4] | Bliss excess [5] | Bliss excess (5637 (Bladder Carcinoma)) | Bliss excess [6] | Bliss excess [7] | Bliss excess [8] | Bliss excess [9] | Bliss excess (AU565 (Breast Carcinoma)) | Bliss excess [10] | Bliss excess [11] | Bliss excess (IM-9 (Non-Cancerous)) | Bliss excess [12] | Bliss excess [13] | Bliss excess [14] | Bliss excess [15] | Bliss excess (A101D (Melanoma))
CC1(C)CCC(CN2CCN(c3ccc(C(=O)NS(=O)(=O)c4ccc(NCC5CCOCC5)c([N+](=O)[O-])c4)c(Oc4cnc5[nH]ccc5c4)c3)CC2)=C(c2ccc(Cl)cc2)C1 [Venetoclax] + Cn1cnc2c(F)c(Nc3ccc(Br)cc3Cl)c(C(=O)NOCCO)cc21 [Selumetinib] (first compound max 1 µM, 7x7, partner max 3 µM) | -0.0561 | -0.0171 | -0.0622 | -0.0133 | -0.0298 | 0.0617 | -0.0194 | -0.0042 | 0.0303 | -0.0148 | -0.0429 | 0.0147 | -0.0674 | -0.028 | 0.111 | -0.0424 | -0.068 | -0.0091 | -0.0399 | -0.0254
Cn1cnc2c(F)c(Nc3ccc(Br)cc3Cl)c(C(=O)NOCCO)cc21 [Selumetinib] + C=CCn1c(=O)c2cnc(Nc3ccc(N4CCN(C)CC4)cc3)nc2n1-c1cccc(C(C)(C)O)n1 [AZD1775] (first compound max 10 µM, partner max 1 µM) | -0.0214 | -0.0333 | -0.0321 | -0.0853 | -0.073 | -0.071 | -0.0306 | -0.0514 | -0.0357 | -0.0554 | -0.0606 | -0.0507 | -0.0037 | -0.0181 | -0.045 | -0.0733 | -0.0625 | 0.0454 | -0.0074 | -0.087
COc1nnc2ccc(N3CCC(c4ccc(OCCN5CCN(C)C(=O)[C@H]5C)cc4)CC3)nn12 [AZD5153] + CC1(C)CCC(CN2CCN(c3ccc(C(=O)NS(=O)(=O)c4ccc(NCC5CCOCC5)c([N+](=O)[O-])c4)c(Oc4cnc5[nH]ccc5c4)c3)CC2)=C(c2ccc(Cl)cc2)C1 [Venetoclax] (first compound max 1 µM, 7x7, partner max 1 µM) | -0.0593 | -0.0241 | -0.0497 | -0.0776 | -0.0478 | -0.0081 | -0.0407 | -0.0597 | -0.0242 | -0.0573 | -0.0629 | 0.0002 | -0.0713 | -0.0724 | 0.0394 | -0.046 | -0.052 | -0.0308 | -0.107 | -0.0731
CN(C)CCCOc1ccc(-c2ccc3ncc4c(c3c2)n(C2CCOCC2)c(=O)n4C)cn1 [AZD0156] + C[C@@H]1COCCN1C2=NC(=NC(=C2)C3(CC3)[S@](=N)(=O)C)C4=C5C=CNC5=NC=C4 [AZD6738] (first compound max 1 µM, 7x7, partner max 10 µM) | -0.0074 | -0.0245 | 0.0921 | 0.0158 | -0.0306 | 0.0025 | -0.0155 | 0.0481 | 0.0169 | -0.0145 | 0.0042 | 0.0094 | 0.0386 | 0.0145 | 0.05 | 0.0361 | 0.0799 | -0.0678 | 0.0062 | 0.0058
CC(=O)c1c(C)c2cnc(Nc3ccc(N4CCNCC4)cn3)nc2n(C2CCCC2)c1=O [Palbociclib] + CC1(C)CCC(CN2CCN(c3ccc(C(=O)NS(=O)(=O)c4ccc(NCC5CCOCC5)c([N+](=O)[O-])c4)c(Oc4cnc5[nH]ccc5c4)c3)CC2)=C(c2ccc(Cl)cc2)C1 [Venetoclax] (first compound max 10 µM, 7x7, partner max 1 µM) | 0.0564 | -0.0472 | -0.0895 | -0.0364 | 0.0369 | -0.0273 | -0.0149 | -0.0285 | -0.0167 | -0.0247 | -0.0448 | 0.0161 | -0.0272 | -0.0555 | 0.0389 | 0.0193 | -0.0004 | -0.0571 | 0.0353 | -0.0025
